From patent US7893299B2, “Interleukin-1 and tumor necrosis factor-αmodulators; syntheses of such modulators and methods of using such modulators” (Nereus Pharmaceuticals, Inc., priority 2005, dated 2011)
Where two headings read alike, the source gives them in different places.

Assays:
RPMI 8226 (MM) = experiment: 48 hr cytotoxicity, RPMI 8226; type: cell-based, human
Procedure: Human colon adenocarcinoma HT-29 (ATCC# HTB-38), prostate adenocarcinoma PC-3 (ATCC# CRL-1435), breast adenocarcinoma MDA-MB231 (ATCC# HTB-26), Multiple Myeloma RPMI 8226 (ATCC# CCL-155) and U266 (ATCC # TIB-196) cell lines and human normal fibroblast CCD-27sk (ATCC# CRL-1475) were all purchased from ATCC (Manassas, Va.). The cells were maintained in their respective ATCC recommended culture media at 37° C., 5% CO2 and 95% humidified air.
The cytotoxicity assays were performed by seeding individual cell lines at appropriate density in the 96 well flat-bottomed plates and allowed to attach for 24 hours at 37° C., 5% CO2 and 95% humidified air (RPMI 8226 and U266 cells were plated in 96 well plates on the day of compound addition). Serially diluted NPI-1387 was added in triplicate to cells at concentrations ranging from 160 nM to 20 μM. Final concentration of 0.25% (v/v) DMSO was used as the vehicle control. Cell viability was assessed 48 hours later by measuring the fluorescence of the reduction product of Resazurin by a Fusion microplate fluorometer (PerkinElmer) with λex=535 nm and λem=590 nm filters. The IC50 values (the drug concentration at which 50% of the maximal observed cytotoxicity is established) were calculated in XLFit 3.0 or XLFit 4.0 (ID Business Solutions Ltd) using a sigmoidal dose response model.

PC3 (Prostate) = experiment: 48 hr cytotoxicity, PC-3; type: cell-based, human
Procedure: (§1) B16-F10 (ATCC; CRL-6475), DU 145 (ATCC; HTB-81), HEK293 (ATCC; CRL-1573), HT-29 (ATCC; HTB-38), LoVo (ATCC; CCL-229), MDA-MB-231 (ATCC; HTB-26), MIA PaCa-2 (ATCC; CRL-1420), NCI-H292 (ATCC; CRL-1848), OVCAR-3 (ATCC, HTB-161), PANC-1 (ATCC; CRL-1469), PC-3 (ATCC; CRL-1435), RPMI 8226 (ATCC; CCL-155) and U266 (ATCC; TIB-196) are maintained in appropriate culture media. The cells are cultured in an incubator at 37° C. in 5% CO2 and 95% humidified air.
For cell growth inhibition assays, B16-F10, DU 145, HEK293, HT-29, LoVo, MDA-MB-231, MIA PaCa-2, NCI-H292, OVCAR-3, PANC-1, PC-3, RPMI 8226 and U266 cells are seeded at 1.25×10^3, 5×10^3, 1.5×10^4, 5×10^3, 5×10^3, 1×10^4, 2×10^3, 4×10^3, 1×10^4, 7.5×10^3, 5×10^3, 2×10^4, 2.5×10^4 cells/well respectively in 90 μl complete media into Corning 3904 black-walled, clear-bottom tissue culture plates. 20 mM stock solutions of compounds of Formula II, IIA, and IIB are prepared in 100% DMSO, aliquoted and stored at −80° C. Compounds of Formula II, IIA, and IIB are serially diluted and added in triplicate to the test wells resulting in final concentrations ranging from of 20 μM to 0.2 pM. […]
Following 48 hours of drug exposure, 10 μl of 0.2 mg/ml resazurin (obtained from Sigma-Aldrich Chemical Co.) in Mg^2+, Ca^2+ free phosphate buffered saline is added to each well and the plates are returned to the incubator for 3-6 hours. Since living cells metabolize Resazurin, the fluorescence of the reduction product of Resazurin is measured using a Fusion microplate fluorometer (Packard Bioscience) with λex=535 nm and λem=590 nm filters. […]
The cytotoxicity assays were performed by seeding individual cell lines at appropriate density in the 96 well flat-bottomed plates and allowed to attach for 24 hours at 37° C., 5% CO2 and 95% humidified air (RPMI 8226 and U266 cells were plated in 96 well plates on the day of compound addition). […] Cell viability was assessed 48 hours later by measuring the fluorescence of the reduction product of Resazurin by a Fusion microplate fluorometer (PerkinElmer) with λex=535 nm and λem=590 nm filters. […]

[1] = 48 hr cytotoxicity, B16-F10 melanoma; type: cell-based, murine; conditions: mouse, B16-F10 melanoma cells, 10% FBS, individual values
Procedure: as §1
(§2) For cell growth inhibition assays, B16-F10, DU 145, HEK293, HT-29, LoVo, MDA-MB-231, MIA PaCa-2, NCI-H292, OVCAR-3, PANC-1, PC-3, RPMI 8226 and U266 cells are seeded at 1.25×10^3, 5×10^3, 1.5×10^4, 5×10^3, 5×10^3, 1×10^4, 2×10^3, 4×10^3, 1×10^4, 7.5×10^3, 5×10^3, 2×10^4, 2.5×10^4 cells/well respectively in 90 μl complete media into Corning 3904 black-walled, clear-bottom tissue culture plates. 20 mM stock solutions of compounds of Formula II, IIA, and IIB are prepared in 100% DMSO, aliquoted and stored at −80° C. Compounds of Formula II, IIA, and IIB are serially diluted and added in triplicate to the test wells resulting in final concentrations ranging from of 20 μM to 0.2 pM. The plates are returned to the incubator for 48 hours. The final concentration of DMSO is 0.25% in all samples.
(§3) Following 48 hours of drug exposure, 10 μl of 0.2 mg/ml resazurin (obtained from Sigma-Aldrich Chemical Co.) in Mg^2+, Ca^2+ free phosphate buffered saline is added to each well and the plates are returned to the incubator for 3-6 hours. Since living cells metabolize Resazurin, the fluorescence of the reduction product of Resazurin is measured using a Fusion microplate fluorometer (Packard Bioscience) with λex=535 nm and λem=590 nm filters. Resazurin dye in medium without cells was used to determine the background, which is subtracted from the data for all experimental wells.

B16-F10 melanoma cells = experiment: 48 hr cytotoxicity, B16-F10 melanoma; type: cell-based, murine; conditions: 10% FBS, individual values
Procedure: as §1, §2, §3

[2] = tested on: cells obtained from Bortezomib-refractory MM patient; experiment: viability of purified patient MM cells; type: cell-based; conditions: in vitro
From the text: Besides nuclear condensation, NF-KB inhibitor triggered proteolytic cleavage of poly (ADP ribose) polymerase (PARP), a hallmark of apoptosis.

PC-3 colony formation = experiment: PC-3 clonogenicity assay; type: cell-based
Procedure: PC-3 cells in 10 cm tissue culture dishes (200 cells/dish) were treated with 5 μM, 10 μM and 20 μM NPI-1387 for 0.5-24 hours in triplicates. DMSO was used as vehicle control. After each time point of drug treatment, the medium was removed, the dishes were washed two times with Dulbecco's phosphate buffered saline (DPBS), and supplied with fresh medium. Cells were cultured for 10 days with the medium replenished every 3 days. On the 10th day, dishes were washed with cold DPBS, fixed for 10 minutes in ice-cold 100% methanol at 4° C., and the colonies were stained with 0.5% (w/v) crystal violet. Colonies were counted manually, and the results expressed as % of colonies in relation to their respective vehicle control.

MM cells = experiment: MM cell death after 48 hours on co-administration with other drugs; type: cell-based
Procedure: In Vitro assays measuring the percentage of MM cell death after 48 hours were carried out with bortezomib and dexamethasone, each in concert with NPI-1387. […] (See FIGS. 70 and 71).

IL-8 production = experiment: LPS-stimulated IL-8 levels in RPMI 8226 cells (ELISA); type: cell-based, human; conditions: 20 μM to 0.16 μM
Procedure: Ninety μl of 2.8×10^5/ml and 0.5 ml of 5×10^5/ml RMPI 8226 cells (#CCL-155C, American Type Culture Collection) were seeded in 96-well and 6-well plate in LGM-3 medium, respectively. Cells were cultured overnight at 37° C., 5% CO2 and 95% humidified air. 8-point serial dilution of TTL3 or formula (IIB-A1) was added to cells for 1 hr at the final concentration ranging from 20 μM to 0.16 μM. DMSO was used as control. After 1 hr, 50 ng/ml of LPS diluted in LGM-3 medium from 1 mg/ml stock solution was added to stimulate the cells for additional 10 hr. Supernatants were collected and IL-8 and IL-10 levels were analyzed by using the human IL-8 and IL-10 cytoset ELISA kits.

| Compound | IC50 (RPMI 8226 (MM)) | IC50 (RPMI 8226 (MM); Homo sapiens, RPMI-8226, 48 h) | IC50 (PC3 (Prostate)) | IC50 (PC3 (Prostate); Homo sapiens, 48 h) | cytotoxicity at 48 h [1] | % cytotox (B16-F10 melanoma cells) | IC50 (B16-F10 melanoma cells) | IC50 (B16-F10 melanoma cells; Mus musculus, B16-F10, 48 h) | viability of cells from Bortezomib-refractory MM patient [2] | PC-3 colony formation (PC-3 colony formation; 5 μM, 10 μM and 20 μM for 0.5-24 hours) | PC-3 colony formation (PC-3 colony formation; exposure of 6 hr to 20 μM) | percentage of MM cell death, co-administration with bortezomib (MM cells) | percentage of MM cell death, co-administration with dexamethasone (MM cells) | LPS-induced IL-8 production (IL-8 production) | LPS-induced IL-8 production (IL-8 production; listed as formula (IIB-A1)) |
| --- | --- | --- | --- | --- | --- | --- | --- | --- | --- | --- | --- | --- | --- | --- | --- |
| C=CC(=O)C1(C)CCCC2(C)C3=CCC(C)(C=C)C[C@@H]3CC[C@H]12 (stereo in doubt) [NPI-1387, 1-[(1S,4aS,7R)-1,4a,7-Trimethyl-7-vinyl-1,2,3,4,4a,6,7,8,8a,9,10,10a-dodecahydro-1-phenanthrenyl]-2-propen-1-one] | 5.5 ± 0.8 µM | 5.1 ± 1 µM | 10 ± 2 µM | 11 ± 2 µM | 94% | 92% | 7.5 µM | 6.2 µM | decreases the viability | inhibits the colony formation of PC-3 cancer cells in a time-dependent and dose-dependent fashion | completely abolish | additive effects in increasing the percentage of MM cell death | additive effects in increasing the percentage of MM cell death |  |  |
| C=C[C@@]1(C)CCC=C2[C@H]1CC[C@@H]1[C@](C)(C(=O)NC3CCCCC3)CCC[C@@]21C [Formula (IIB-A1), N-Cyclohexylamide Derivative of TTL] |  |  |  |  |  |  |  |  |  |  |  |  |  | reduces LPS-induced IL-8 and IL-10 production in a dose-dependent manner | inhibits the LPS-induced IL-8 and IL-10 production |
